# Reference: US9693556B2, “Herbicidal pyridazinone derivatives” (SYNGENTA LIMITED, priority 2011, dated 2017)
# Assays:
# Format in all cases: in vivo
# Setaria faberi (SETFA) [1] = assay: Post-emergence herbicidal glasshouse test on Setaria faberi; settings: post-emergence, 1000 g/h, evaluated after 13 days
# How it was run: (§1)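 Pre-emergence treatment came one day after sowing, post-emergence treatment after eight days' growth; both used 1000 g/h in a 0.5% Tween 20 acetone/water vehicle. Percent damage, scored 1–5, was read 13 days later.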
# [2] = test system: Ipomoea hederacea (IPOHE); assay: Pre-emergence herbicidal glasshouse test on Ipomoea hederacea; settings: pre-emergence, 1000 g/h, evaluated after 13 days
# How it was run: as §1
# [3] = test system: Alopecurus myosuroides (ALOMY); assay: Pre-emergence herbicidal glasshouse test on Alopecurus myosuroides; settings: pre-emergence, 1000 g/h, evaluated after 13 days
# How it was run: as §1
# [4] = test system: Amaranthus retoflexus (AMARE); assay: Pre-emergence herbicidal glasshouse test on Amaranthus retoflexus; settings: pre-emergence, 1000 g/h, evaluated after 13 days
# How it was run: as §1
# [5] = test system: Echinochloa crus-galli (ECHCG); assay: Pre-emergence herbicidal glasshouse test on Echinochloa crus-galli; settings: pre-emergence, 1000 g/h, evaluated after 13 days
# How it was run: as §1
# [6] = test system: Alopecurus myosuroides (ALOMY); assay: Post-emergence herbicidal glasshouse test on Alopecurus myosuroides; settings: post-emergence, 1000 g/h, evaluated after 13 days
# How it was run: as §1
# Solanum nigrum (SOLNI) [7] = assay: Post-emergence herbicidal glasshouse test on Solanum nigrum; settings: post-emergence, 1000 g/h, evaluated after 13 days
# How it was run: as §1
# Solanum nigrum (SOLNI) [8] = assay: Pre-emergence herbicidal glasshouse test on Solanum nigrum; settings: pre-emergence, 1000 g/h, evaluated after 13 days
# How it was run: as §1
# [9] = test system: Echinochloa crus-galli (ECHCG); assay: Post-emergence herbicidal glasshouse test on Echinochloa crus-galli; settings: post-emergence, 1000 g/h, evaluated after 13 days
# How it was run: as §1
# Setaria faberi (SETFA) [10] = assay: Pre-emergence herbicidal glasshouse test on Setaria faberi; settings: pre-emergence, 1000 g/h, evaluated after 13 days
# How it was run: as §1
# [11] = test system: Amaranthus retoflexus (AMARE); assay: Post-emergence herbicidal glasshouse test on Amaranthus retoflexus; settings: post-emergence, 1000 g/h, evaluated after 13 days
# How it was run: as §1
# [12] = test system: Ipomoea hederacea (IPOHE); assay: Post-emergence herbicidal glasshouse test on Ipomoea hederacea; settings: post-emergence, 1000 g/h, evaluated after 13 days
# How it was run: as §1
Structure (SMILES),POST Application SETFA herbicidal damage (five point scale) (Setaria faberi (SETFA) [1]),PRE Application IPOHE herbicidal damage (five point scale) [2],PRE Application ALOMY herbicidal damage (five point scale) [3],PRE Application AMARE herbicidal damage (five point scale) [4],PRE Application ECHCG herbicidal damage (five point scale) [5],POST Application ALOMY herbicidal damage (five point scale) [6],POST Application SOLNI herbicidal damage (five point scale) (Solanum nigrum (SOLNI) [7]),PRE Application SOLNI herbicidal damage (five point scale) (Solanum nigrum (SOLNI) [8]),POST Application ECHCG herbicidal damage (five point scale) [9],PRE Application SETFA herbicidal damage (five point scale) (Setaria faberi (SETFA) [10]),POST Application AMARE herbicidal damage (five point scale) [11],POST Application IPOHE herbicidal damage (five point scale) [12],also measured
Cn1ncc(-n2ccc(C(F)(F)F)c(-c3cccc(C(F)(F)F)c3)c2=O)c(O)c1=O [Compound 7.018],5 (5=80-100% damage),2 (2=20-39% damage),5 (5=80-100% damage),5 (5=80-100% damage),5 (5=80-100% damage),5 (5=80-100% damage),5 (5=80-100% damage),5 (5=80-100% damage),5 (5=80-100% damage),5 (5=80-100% damage),5 (5=80-100% damage),3 (3=40-59% damage),
Cc1c(-c2c(C#N)nn(C)c(=O)c2O)ccc(S(C)(=O)=O)c1C1=NOCC1 [Compound 2.025],1 (1=0-19% damage),5 (5=80-100% damage),1 (1=0-19% damage),5 (5=80-100% damage),1 (1=0-19% damage),2 (2=20-39% damage),5 (5=80-100% damage),5 (5=80-100% damage),4 (4=60-79% damage),1 (1=0-19% damage),5 (5=80-100% damage),4 (4=60-79% damage),
Cn1ncc(-n2ccc(C(F)(F)F)c(-c3ccccc3Cl)c2=O)c(O)c1=O [Compound 1.159],,,,,,,,,,,,,"herbicidal damage, POST Application SETFA (Setaria faberi (SETFA) [1]; five point scale): 5 (5=80-100% damage); herbicidal damage, PRE Application IPOHE ([2]; five point scale): 1 (1=0-19% damage); herbicidal damage, PRE Application ALOMY ([3]; five point scale): 5 (5=80-100% damage); herbicidal damage, PRE Application AMARE ([4]; five point scale): 5 (5=80-100% damage); herbicidal damage, PRE Application ECHCG ([5]; five point scale): 5 (5=80-100% damage); herbicidal damage, POST Application ALOMY ([6]; five point scale): 4 (4=60-79% damage); herbicidal damage, POST Application SOLNI (Solanum nigrum (SOLNI) [7]; five point scale): 5 (5=80-100% damage); herbicidal damage, PRE Application SOLNI (Solanum nigrum (SOLNI) [8]; five point scale): 5 (5=80-100% damage); herbicidal damage, POST Application ECHCG ([9]; five point scale): 5 (5=80-100% damage); herbicidal damage, PRE Application SETFA (Setaria faberi (SETFA) [10]; five point scale): 5 (5=80-100% damage); herbicidal damage, POST Application AMARE ([11]; five point scale): 5 (5=80-100% damage); herbicidal damage, POST Application IPOHE ([12]; five point scale): 5 (5=80-100% damage)"
COc1ccc(-c2c(C(F)(F)F)ccn(-c3cnn(C)c(=O)c3O)c2=O)cc1 [Compound 7.033],5 (5=80-100% damage),4 (4=60-79% damage),5 (5=80-100% damage),5 (5=80-100% damage),5 (5=80-100% damage),5 (5=80-100% damage),5 (5=80-100% damage),5 (5=80-100% damage),5 (5=80-100% damage),5 (5=80-100% damage),5 (5=80-100% damage),3 (3=40-59% damage),
Cn1ncc(-c2cc(F)ccc2Cl)c(O)c1=O [Compound 1.086],1 (1=0-19% damage),1 (1=0-19% damage),1 (1=0-19% damage),1 (1=0-19% damage),1 (1=0-19% damage),1 (1=0-19% damage),1 (1=0-19% damage),1 (1=0-19% damage),1 (1=0-19% damage),1 (1=0-19% damage),1 (1=0-19% damage),1 (1=0-19% damage),
Cn1ncc(-c2ccc(C(F)(F)F)nc2N2CCOCC2)c(O)c1=O [Compound 1.075],2 (2=20-39% damage),2 (2=20-39% damage),1 (1=0-19% damage),5 (5=80-100% damage),5 (5=80-100% damage),3 (3=40-59% damage),5 (5=80-100% damage),5 (5=80-100% damage),5 (5=80-100% damage),1 (1=0-19% damage),5 (5=80-100% damage),5 (5=80-100% damage),
CCOc1cccc(-c2c(C(F)(F)F)ccn(-c3cnn(C)c(=O)c3O)c2=O)c1 [Compound 7.016],2 (2=20-39% damage),1 (1=0-19% damage),2 (2=20-39% damage),5 (5=80-100% damage),2 (2=20-39% damage),2 (2=20-39% damage),5 (5=80-100% damage),5 (5=80-100% damage),2 (2=20-39% damage),2 (2=20-39% damage),5 (5=80-100% damage),1 (1=0-19% damage),
Cn1ncc(-c2ccc(Cl)cc2[N+](=O)[O-])c(O)c1=O [Compound 1.109],1 (1=0-19% damage),1 (1=0-19% damage),1 (1=0-19% damage),5 (5=80-100% damage),1 (1=0-19% damage),1 (1=0-19% damage),4 (4=60-79% damage),2 (2=20-39% damage),2 (2=20-39% damage),1 (1=0-19% damage),5 (5=80-100% damage),4 (4=60-79% damage),
Cn1ncc(-c2ccc(C#N)cc2C(F)(F)F)c(O)c1=O [Compound 1.071],4 (4=60-79% damage),2 (2=20-39% damage),4 (4=60-79% damage),5 (5=80-100% damage),5 (5=80-100% damage),3 (3=40-59% damage),5 (5=80-100% damage),5 (5=80-100% damage),5 (5=80-100% damage),4 (4=60-79% damage),5 (5=80-100% damage),5 (5=80-100% damage),
Cn1ncc(-c2cccn(Cc3ccccc3)c2=O)c(O)c1=O [Compound 9.008],1 (1=0-19% damage),1 (1=0-19% damage),1 (1=0-19% damage),2 (2=20-39% damage),4 (4=60-79% damage),1 (1=0-19% damage),3 (3=40-59% damage),2 (2=20-39% damage),1 (1=0-19% damage),1 (1=0-19% damage),3 (3=40-59% damage),1 (1=0-19% damage),
